Each structure is given as a SMILES string.

Results on 5 compounds are retold here after patent US8822517B2, “Arylosulfonamides for the treatment of CNS diseases” (Adamed SP. Z O.O., priority 2010, dated 2014).

Data set [1] deals with mice. Nature of the data set: d-Amphetamine-induced locomotor hyperactivity in mice. The conditions noted are these: minimum effective dose, d-amphetamine-induced locomotor hyperactivity, i.p.
Procedure: All the experiments were performed by two observers unaware of the treatment applied between 9:00 and 14:00 on separate groups of animals. All animals were used only once and were killed immediately after the experiment.
The locomotor activity was recorded with an Opto M3 multi-channel activity monitor (MultiDevice Software v. 1.3, Columbus Instruments). The mice were individually placed in plastic cages (22×12×13 cm) for 30 minutes habituation period, and then the crossings of each channel (ambulation) were counted during 1 h with data recording every 5 minutes. The cages were cleaned up with 70% ethanol after each mouse. Drugs were administered to 10 mice per treatment group. d-Amphetamine was administered 30 minutes before the test.
An injection volume of 10 ml/kg (mice) or 2 ml/kg (rats) was used throughout and all compounds were administered intraperitoneally (i.p.), except d-amphetamine that was given subcutaneously (s.c.).
All the data are expressed as the mean±SEM. The statistical significance of effects was evaluated using separate one-way analysis of variance (ANOVA) with comparison between individual groups by Dunnett's test (when only one drug was given) or by the Tukey's test when two drugs were used; p<0.05, p<0.01 and p<0.001 were considered statistically significant. ED50 values were calculated using Graph Pad Prism 5 Software.
Data set [2] deals with serotoninergic 5-HT7 receptor (Homo sapiens, UniProt P34969). In words: Binding assay 5-HT7 (h), [3H]LSD, CHO cells. Further details: expressed in transfected cells; host or cells: CHO cells. The conditions noted are these: read-out: 5-HT7. A digest of the protocol:
(§1)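 Tested at 1×10^−6 M. Specific binding: total minus binding remaining with excess cold ligand. Detection: scintillation counting.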

Data set [3] has as its target histaminergic H1 receptor (Homo sapiens, UniProt P35367). In words: Binding assay H1 (h), [3H]pyrilamine, HEK-293 cells. Further details: expressed in transfected cells; host or cells: HEK-293 cells. The conditions noted are these: read-out: H1 [%]. A digest of the protocol: as §1
Data set [4] deals with T1, serotoninergic 5-HT1A receptor (Homo sapiens, UniProt P08908).
T1 sequence (P08908 1-422): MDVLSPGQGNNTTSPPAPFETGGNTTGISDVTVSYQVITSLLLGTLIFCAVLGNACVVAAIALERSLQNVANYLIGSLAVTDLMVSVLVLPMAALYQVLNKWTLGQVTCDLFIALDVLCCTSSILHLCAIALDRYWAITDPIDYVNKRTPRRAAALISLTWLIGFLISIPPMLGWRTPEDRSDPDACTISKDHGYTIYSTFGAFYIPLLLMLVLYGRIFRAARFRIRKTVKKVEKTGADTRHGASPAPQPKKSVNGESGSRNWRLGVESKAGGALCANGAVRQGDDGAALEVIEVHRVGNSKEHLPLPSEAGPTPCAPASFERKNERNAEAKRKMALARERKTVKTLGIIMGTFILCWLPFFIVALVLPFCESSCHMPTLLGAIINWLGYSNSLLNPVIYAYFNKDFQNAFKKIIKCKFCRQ
In words: Cellular functional assay, serotoninergic 5-HT1A receptor (agonism/antagonism). The data set is classed as cell-based. The conditions noted are these: for inhibition at 1 µM: CHO, read-out: 5-HT1A-antag. [%]; for activation at 1 µM: agonist effect, percent of control specific agonist response (100 nM 8-OH-DPAT for control), 1×10^−6 M, 5-HT1A (h), CHO cells, read-out: 5-HT1A-ag [%]. On the procedure: The compounds were tested at the concentration of 1×10^−6M.
In the Tables ag refers to agonism, and antag to antagonism).

The subject of data set [5] is adrenergic α1 receptor. Nature of the data set: Binding assay α1 (non-selective), [3H]prazosin, rat cerebral cortex. The conditions noted are these: percent inhibition of control specific binding; compounds tested at 1×10^−6 M. Put shortly: as §1
For data set [6], the target named is T1, serotoninergic 5-HT1A receptor. Nature of the data set: Binding assay 5-HT1A (h), [3H]8-OH-DPAT, HEK-293 cells. Further details: expressed in transfected cells; host or cells: HEK-293 cells. The conditions noted are these: read-out: 5-HT1A. A digest of the protocol:
as §1

The test system of data set [7] is sigma σ receptor. Nature of the data set: Binding assay σ (non-selective), [3H]DTG, rat cerebral cortex. The conditions noted are these: percent inhibition of control specific binding; compounds tested at 1×10^−6 M. A digest of the protocol: as §1
Data set [8] concerns the target T2, serotoninergic receptor 5-HT2C (Homo sapiens, UniProt P28335).
T2 construct: expressed in transfected cells; host or cells: HEK-293 cells
T2 sequence (P28335 33-458): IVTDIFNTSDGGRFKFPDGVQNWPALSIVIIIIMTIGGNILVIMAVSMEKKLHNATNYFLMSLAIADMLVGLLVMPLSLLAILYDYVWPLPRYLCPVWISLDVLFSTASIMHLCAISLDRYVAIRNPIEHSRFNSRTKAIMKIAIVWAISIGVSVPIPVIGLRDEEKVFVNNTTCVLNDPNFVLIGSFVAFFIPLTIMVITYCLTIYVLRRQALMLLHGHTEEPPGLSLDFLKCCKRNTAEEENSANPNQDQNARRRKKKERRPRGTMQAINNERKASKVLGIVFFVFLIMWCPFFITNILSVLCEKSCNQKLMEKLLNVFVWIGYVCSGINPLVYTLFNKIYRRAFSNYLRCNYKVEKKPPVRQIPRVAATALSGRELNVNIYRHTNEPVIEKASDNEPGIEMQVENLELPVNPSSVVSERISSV
Nature of the data set: Binding assay 5-HT2C (h), [3H]mesulergine, HEK-293 cells. The conditions noted are these: read-out: 5-HT2C [%]. Put shortly: as §1

Data set [9] concerns the target dopaminergic D3 receptor (Homo sapiens, UniProt P35462). In words: Binding assay D3 (h), [3H]methyl-spiperone, CHO cells. Further details: expressed in transfected cells; host or cells: CHO cells. The conditions noted are these: read-out: D3 [%]. A digest of the protocol: as §1
The target of data set [10] is serotoninergic 5-HT6 receptor (Homo sapiens, UniProt P50406). Nature of the data set: Binding assay 5-HT6 (h), [3H]LSD, CHO cells. Further details: expressed in transfected cells; host or cells: CHO cells. The conditions noted are these: read-out: 5-HT6. Put shortly: as §1
Data set [11] addresses hERG potassium channels (Homo sapiens, UniProt Q12809). Nature of the data set: hERG potassium channel block, electrophysiology (IonWorks Quattro), CHO cells. The conditions noted are these: % block of hERG current, cloned hERG channels in CHO cells, IonWorks Quattro. On the technique in general: Block of hERG is tested as a sign of cardiac risk.
Procedure: Ability to block hERG potassium channels was determined using the electrophysiological method and cloned hERG potassium channels (KCNH2 gene, expressed in CHO cells) as biological material. The effects were evaluated using IonWorks™ Quattro system (MDS-AT).
hERG current was elicited using a pulse pattern with fixed amplitudes (conditioning prepulse: −80 mV for 25 ms; test pulse: +40 mV for 80 ms) from a holding potential of 0 mV. hERG current was measured as a difference between the peak current at 1 ms after the test step to +40 mV and the steady-state current at the end of the step to +40 mV.
Data acquisition and analyses was performed using the IonWorks Quattro™ system operation software (version 2.0.2; Molecular Devices Corporation, Union City, Calif.). Data were corrected for leak current.

Chain of serotoninergic 5-HT6 receptor (P50406 whole entry): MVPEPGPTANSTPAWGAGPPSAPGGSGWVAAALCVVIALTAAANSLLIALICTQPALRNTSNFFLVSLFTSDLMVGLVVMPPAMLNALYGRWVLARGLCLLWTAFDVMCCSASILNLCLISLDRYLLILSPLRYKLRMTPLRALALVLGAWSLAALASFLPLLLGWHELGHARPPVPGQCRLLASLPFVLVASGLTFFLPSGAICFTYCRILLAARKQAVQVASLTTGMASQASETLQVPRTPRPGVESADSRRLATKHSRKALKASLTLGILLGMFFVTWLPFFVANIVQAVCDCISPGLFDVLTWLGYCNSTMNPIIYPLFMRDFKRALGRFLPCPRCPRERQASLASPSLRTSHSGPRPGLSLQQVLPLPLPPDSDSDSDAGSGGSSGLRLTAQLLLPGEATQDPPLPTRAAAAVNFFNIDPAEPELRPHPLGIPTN
Chain of hERG potassium channels (Q12809 whole entry): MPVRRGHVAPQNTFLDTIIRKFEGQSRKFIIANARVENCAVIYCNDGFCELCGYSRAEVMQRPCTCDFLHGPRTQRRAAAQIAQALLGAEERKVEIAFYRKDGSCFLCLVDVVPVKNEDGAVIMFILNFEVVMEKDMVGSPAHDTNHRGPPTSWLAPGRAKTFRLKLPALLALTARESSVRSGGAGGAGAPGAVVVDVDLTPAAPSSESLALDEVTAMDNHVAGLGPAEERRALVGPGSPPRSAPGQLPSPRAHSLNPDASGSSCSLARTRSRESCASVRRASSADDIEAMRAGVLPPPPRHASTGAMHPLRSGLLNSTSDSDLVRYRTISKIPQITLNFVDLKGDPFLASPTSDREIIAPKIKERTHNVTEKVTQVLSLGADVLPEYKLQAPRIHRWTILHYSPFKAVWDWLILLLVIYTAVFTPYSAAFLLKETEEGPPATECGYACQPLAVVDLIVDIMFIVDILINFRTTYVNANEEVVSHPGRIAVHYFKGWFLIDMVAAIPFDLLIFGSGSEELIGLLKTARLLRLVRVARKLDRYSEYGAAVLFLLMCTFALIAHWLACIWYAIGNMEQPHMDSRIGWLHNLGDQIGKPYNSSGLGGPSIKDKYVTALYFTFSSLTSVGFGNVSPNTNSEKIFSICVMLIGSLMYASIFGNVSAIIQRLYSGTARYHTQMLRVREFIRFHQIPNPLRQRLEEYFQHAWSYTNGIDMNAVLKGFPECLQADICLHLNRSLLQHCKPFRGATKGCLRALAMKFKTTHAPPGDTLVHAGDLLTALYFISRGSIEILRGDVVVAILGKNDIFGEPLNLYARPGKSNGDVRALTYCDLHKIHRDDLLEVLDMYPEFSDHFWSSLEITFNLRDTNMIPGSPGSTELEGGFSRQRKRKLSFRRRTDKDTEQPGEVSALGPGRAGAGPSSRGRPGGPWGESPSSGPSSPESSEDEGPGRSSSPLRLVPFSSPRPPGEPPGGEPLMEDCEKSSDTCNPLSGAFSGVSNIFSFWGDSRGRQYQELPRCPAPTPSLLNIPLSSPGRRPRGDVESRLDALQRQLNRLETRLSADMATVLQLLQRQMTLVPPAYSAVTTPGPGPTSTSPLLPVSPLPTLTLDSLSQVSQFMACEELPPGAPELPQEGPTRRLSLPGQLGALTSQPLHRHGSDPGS
Chain of histaminergic H1 receptor (P35367 whole entry): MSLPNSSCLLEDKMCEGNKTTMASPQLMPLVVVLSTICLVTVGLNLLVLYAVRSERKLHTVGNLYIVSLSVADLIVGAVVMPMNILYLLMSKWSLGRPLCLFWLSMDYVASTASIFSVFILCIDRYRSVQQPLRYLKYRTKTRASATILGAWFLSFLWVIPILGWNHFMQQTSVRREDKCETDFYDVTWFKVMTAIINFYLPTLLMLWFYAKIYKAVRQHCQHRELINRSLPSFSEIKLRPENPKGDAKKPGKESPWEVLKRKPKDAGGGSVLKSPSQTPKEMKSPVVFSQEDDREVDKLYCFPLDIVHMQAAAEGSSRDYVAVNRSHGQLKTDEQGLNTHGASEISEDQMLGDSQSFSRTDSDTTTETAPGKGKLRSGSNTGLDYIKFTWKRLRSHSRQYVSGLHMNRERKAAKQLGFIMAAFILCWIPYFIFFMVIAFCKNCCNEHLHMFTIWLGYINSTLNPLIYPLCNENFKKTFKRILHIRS
Chain of dopaminergic D3 receptor (P35462 whole entry): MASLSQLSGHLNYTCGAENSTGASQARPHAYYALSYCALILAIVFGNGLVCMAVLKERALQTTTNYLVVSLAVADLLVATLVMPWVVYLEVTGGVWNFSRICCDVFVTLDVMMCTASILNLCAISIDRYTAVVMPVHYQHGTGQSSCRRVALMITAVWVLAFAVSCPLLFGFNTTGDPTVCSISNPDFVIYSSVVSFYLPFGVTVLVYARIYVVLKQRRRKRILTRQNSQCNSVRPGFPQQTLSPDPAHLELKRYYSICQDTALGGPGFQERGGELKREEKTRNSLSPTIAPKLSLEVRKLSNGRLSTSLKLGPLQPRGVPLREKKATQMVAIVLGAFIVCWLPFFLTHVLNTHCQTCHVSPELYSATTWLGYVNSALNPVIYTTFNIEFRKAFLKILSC
Chain of serotoninergic 5-HT7 receptor (P34969 whole entry): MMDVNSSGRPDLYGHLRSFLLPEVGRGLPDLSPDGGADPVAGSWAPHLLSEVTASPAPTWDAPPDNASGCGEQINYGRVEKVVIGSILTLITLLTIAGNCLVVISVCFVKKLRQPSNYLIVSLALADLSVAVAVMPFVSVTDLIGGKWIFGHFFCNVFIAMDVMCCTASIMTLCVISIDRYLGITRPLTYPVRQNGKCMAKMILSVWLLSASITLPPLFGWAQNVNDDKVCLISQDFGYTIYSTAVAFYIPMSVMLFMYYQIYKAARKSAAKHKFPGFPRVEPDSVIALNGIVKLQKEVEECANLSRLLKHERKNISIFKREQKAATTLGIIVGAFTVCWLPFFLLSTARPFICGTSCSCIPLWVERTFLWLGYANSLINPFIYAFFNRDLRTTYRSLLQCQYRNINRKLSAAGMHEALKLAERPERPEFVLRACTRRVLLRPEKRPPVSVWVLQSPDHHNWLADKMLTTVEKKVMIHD

For `O=S(=O)(NCCCCN1CCC(c2noc3cc(F)ccc23)CC1)c1ccc2cc(Cl)ccc2c1` [Compound 97, 6-Chloro-N-[4-[4-(6-fluoro-1,2-benzoxazol-3-yl)piperidin-1-yl]butyl]naphthalene-2-sulphonamide], the “MED*” value in [1] is on record as 2.5 mg/kg. Further, the inhibition at 1 µM in [2] was determined as 93%; in [3], 91%; in data set [4], 38%; in data set [6] it was 75%; in data set [8] it was 89%; in data set [9], 100%. The inhibition at 1 µM in data set [10] worked out at 98%. For the same compound, in data set [4], the activation at 1 µM came to 13%. For the same compound, the “α1 [%]” value in [5] came to 98%. Besides, the “σ [%]” value in data set [7] is 55%.

For the compound `O=S(=O)(NCCCCN1CCC(c2noc3cc(F)ccc23)CC1)c1ccc2ccccc2c1` [Compound 18, N-[4-[4-(6-Fluoro-1,2-benzoxazol-3-yl)piperidin-1-yl]butyl]naphthalene-2-sulphonamide], the “MED*” value in [1] is 2.5 mg/kg. In addition, the inhibition at 1 µM is 98% in [2]; 79% in data set [3]; 81% in [6]; 73% in data set [8]; 98% in data set [9]; 100% in data set [10]. The “hERG [%]” value in [11] stood at 30%.

As for `O=S(=O)(NCCCCN1CCN(c2cccc3[nH]ccc23)CC1)c1ccc(F)cc1` [Compound 359, 4-Fluoro-N-[4-[4-(1H-indol-4-yl)piperazin-1-yl]butyl]benzenesulphonamide], the inhibition at 1 µM worked out at 95% in data set [2]; 60% in data set [3]; 94% in [4]; 100% in data set [6]; 12% in data set [8]; 100% in data set [9]. Further, the inhibition at 1 µM in data set [10] was 42%. Further, the activation at 1 µM in data set [4] worked out at 22%. In addition, in [5], the “α1 [%]” value is listed as 97%. The “hERG [%]” value in data set [11] turned out to be 9%. The “σ [%]” value in data set [7] is reported as 85%.

Turning to `O=S(=O)(NCCCCN1CCN(c2cccc3[nH]ccc23)CC1)c1ccc2cc(Cl)ccc2c1` [Compound 358, 6-Chloro-N-[4-[4-(1H-indol-4-yl)piperazin-1-yl]butyl]naphthalene-2-sulphonamide], the inhibition at 1 µM in data set [2] came to 94%; in data set [3], 74%; in data set [4] it was 70%; in data set [6] it was 100%; in data set [8], 62%; in [9] it was 99%. The inhibition at 1 µM in [10] came out at 70%. In addition, the activation at 1 µM in [4] came to 22%. Further, the “α1 [%]” value in data set [5] is 88%. In addition, the “hERG [%]” value in [11] is 0%. In addition, in [7], the “σ [%]” value is given as 84%.

For the compound `O=S(=O)(NCCCCN1CCN(c2cccc3[nH]ccc23)CC1)c1cnc2ccccn12` [Compound 30, N-{4-[4-(1H-Indol-4-yl)piperazin-1-yl]butyl}-imidazo[1,2-a]pyridine-3-sulphonamide], the inhibition at 1 µM was 96% in data set [2]; 40% in data set [3]; 86% in [4]; 100% in [6]; 11% in data set [8]; 98% in data set [9]. The inhibition at 1 µM in data set [10] worked out at 5%. The activation at 1 µM in data set [4] was 22%. In addition, the “α1 [%]” value in data set [5] was 96%. In data set [11], the “hERG [%]” value was −3%. The “σ [%]” value in data set [7] worked out at 42%.
